Source: patent publication US8119798B2, “P38 kinase inhibitors” (GlaxoSmithKline LLC, priority 2006, dated 2012)

Tested on: secretion of TNF-α from LPS-stimulated human monocytes
Experiment: LPS-induced TNF-alpha production in human THP-1 cell line
Assay type: cell-based
Conditions: Monocyte, read-out: EC50, inhibition of secretion of TNF-α from LPS-stimulated human monocytes
Procedure: THP-1 (human, monocytic) cell line was purchased from the American Type Culture Collection (ATCC, Cat. No.TIB 202). Cell line was passaged three times per week in RPMI 1640 (GIBCO), supplemented with 10% heat-inactivated fetal bovine serum (FBS; Omega Scientific, Tarzana, Calif.), 2 mM L-glutamine, 100 U/ml penicillin and 100 μg/ml streptomycin (Gibco/Invitrogen, Carlsbad, Calif.) in a humidified incubator with 95% air and 5% CO2 at 37° C.
For the assay THP-1 cells were harvested, counted and suspended at 1E6 cells/ml in culture medium. 200 μl of cell suspension was added to each well at 96 well plates to provide density of 2×10^5 cells per well. Serial dilutions of P38 compounds were prepared at final concentrations in culture medium from a 10 mM stock solution, and assayed in triplicate. Vehicle was prepared by adjusting culture medium to 0.1% v/v DMSO which corresponds to the concentration of DMSO in the wells with test compounds.
Cells were incubated in presence of the P38 inhibitor for 30 min. After that cells were stimulated with LPS (E. coli 026:B6, 1 μg/ml) for 4 hr at 37° C. in a 5% CO2-incubator. Reaction was stopped by placing samples on ice and centrifuging for 10 min at 1500×g at 4° C. Cell supernatants were harvested and concentration of TNF—was determined by ELISA (BD Pharmingen, San Diego, Calif., Cat. No. 555212), following the manufacturer's instruction. Absorbance read and analyzed at 450 nm on a spectrophotometric ELISA plate reader (Labsystems Multiskan MCC/340). Replicate readings were averaged and the results are expressed as a percent of OD signal from control.

Row | EC50 | Compound
1 | 33 nM | CONC(=O)c1ccc(C)c(Nc2nc(NCC3CCCC(CN)C3)nc(N[C@H](C)C(C)(C)C)n2)c1 (stereo partly shown) [Compound 9]
2 | 22 nM | CONC(=O)c1ccc(C)c(Nc2nc(NCC3CCCC(CN)C3)nc(NC3CCCCC3C)n2)c1 (stereo not shown) [Compound 10]
3 | 11 nM | CONC(=O)c1ccc(C)c(Nc2nc(NCC3CCCC(CN)C3)nc(NC3CCCCC3)n2)c1 (stereo not shown) [Compound 11]
4 | 122 nM | CONC(=O)c1ccc(C)c(Nc2nc(NCc3cccc(C)c3)nc(N[C@H](C)C(C)(C)C)n2)c1 [Compound 12]
